Reference: ChEMBL document CHEMBL2413072, “Synthesis and in vitro anticancer studies of novel C-2 arylidene congeners of lantadenes” (2013)

Assays:
Type in all cases: functional
NCI-H23 = test: Growth inhibition of human NCI-H23 cells by sulforhodamine B assay
HOP-92 = test: Growth inhibition of human HOP92 cells by sulforhodamine B assay
CCRF-CEM [1] = test: Growth inhibition of human CCRF-CEM cells by sulforhodamine B assay
IGROV-1 = test: Growth inhibition of human IGROV1 cells assessed as cell growth at 10^-8 M by sulforhodamine B assay; conditions: read-out: Activity
UACC-257 = test: Growth inhibition of human UACC257 cells assessed as cell growth at 10^-8 M by sulforhodamine B assay; conditions: read-out: Activity
SK-MEL-28 [2] = test: Growth inhibition of human SK-MEL-28 cells assessed as cell growth at 10^-8 M by sulforhodamine B assay; conditions: read-out: Activity
MDA-MB-435 [3] = test: Growth inhibition of human MDA-MB-435 cells assessed as cell growth at 10^-8 M by sulforhodamine B assay; conditions: read-out: Activity
Malme-3M = test: Growth inhibition of human MALME-3M cells assessed as cell growth at 10^-8 M by sulforhodamine B assay; conditions: read-out: Activity
[4] = Growth inhibition of human HCC2998 cells assessed as cell growth at 10^-8 M by sulforhodamine B assay; conditions: HCC 2998, read-out: Activity
NCI-H522 [5] = test: Growth inhibition of human NCI-H522 cells assessed as cell growth at 10^-8 M by sulforhodamine B assay; conditions: read-out: Activity
MDA-MB-231 = test: Growth inhibition of human MDA-MB-231 cells by sulforhodamine B assay
SN12C = test: Growth inhibition of human SN12C cells by sulforhodamine B assay
SK-MEL-2 = test: Growth inhibition of human SK-MEL-2 cells by sulforhodamine B assay
TK-10 [6] = test: Growth inhibition of human TK10 cells assessed as cell growth at 10^-4 M by sulforhodamine B assay; conditions: read-out: Activity
UACC-62 = test: Growth inhibition of human UACC62 cells assessed as cell growth at 10^-4 M by sulforhodamine B assay; conditions: read-out: Activity
SK-MEL-28 [7] = test: Growth inhibition of human SK-MEL-28 cells assessed as cell growth at 10^-4 M by sulforhodamine B assay; conditions: read-out: Activity
HT-29 [8] = test: Growth inhibition of human HT-29 cells assessed as cell growth at 10^-4 M by sulforhodamine B assay; conditions: read-out: Activity
NCI-H460 = test: Growth inhibition of human NCI-H460 cells assessed as cell growth at 10^-4 M by sulforhodamine B assay; conditions: read-out: Activity
BT-549 = test: Growth inhibition of human BT549 cells assessed as cell growth at 10^-6 M by sulforhodamine B assay; conditions: read-out: Activity
SF-539 [9] = test: Growth inhibition of human SF539 cells assessed as cell growth at 10^-6 M by sulforhodamine B assay; conditions: read-out: Activity
SF-295 = test: Growth inhibition of human SF295 cells assessed as cell growth at 10^-6 M by sulforhodamine B assay; conditions: read-out: Activity
SW-620 = test: Growth inhibition of human SW620 cells assessed as cell growth at 10^-6 M by sulforhodamine B assay; conditions: read-out: Activity
HT-29 [10] = test: Growth inhibition of human HT-29 cells assessed as cell growth at 10^-6 M by sulforhodamine B assay; conditions: read-out: Activity
HCT-116 = test: Growth inhibition of human HCT116 cells assessed as cell growth at 10^-6 M by sulforhodamine B assay; conditions: read-out: Activity
DU-145 = test: Growth inhibition of human DU145 cells assessed as cell growth at 10^-7 M by sulforhodamine B assay; conditions: read-out: Activity
CAKI-1 = test: Growth inhibition of human CAKI-1 cells assessed as cell growth at 10^-7 M by sulforhodamine B assay; conditions: read-out: Activity
A498 = test: Growth inhibition of human A498 cells assessed as cell growth at 10^-7 M by sulforhodamine B assay; conditions: read-out: Activity
MDA-MB-435 [11] = test: Growth inhibition of human MDA-MB-435 cells assessed as cell growth at 10^-7 M by sulforhodamine B assay; conditions: read-out: Activity
SF-539 [12] = test: Growth inhibition of human SF539 cells assessed as cell growth at 10^-7 M by sulforhodamine B assay; conditions: read-out: Activity
HCT-15 = test: Growth inhibition of human HCT15 cells assessed as cell growth at 10^-7 M by sulforhodamine B assay; conditions: read-out: Activity
COLO 205 = test: Growth inhibition of human COLO205 cells assessed as cell growth at 10^-7 M by sulforhodamine B assay; conditions: read-out: Activity
NCI-H522 [13] = test: Growth inhibition of human NCI-H522 cells assessed as cell growth at 10^-7 M by sulforhodamine B assay; conditions: read-out: Activity
A549 = test: Growth inhibition of human A549/ATCC cells assessed as cell growth at 10^-7 M by sulforhodamine B assay; conditions: read-out: Activity
HL-60(TB) = test: Growth inhibition of human HL-60(TB) cells assessed as cell growth at 10^-7 M by sulforhodamine B assay; conditions: read-out: Activity
CCRF-CEM [14] = test: Growth inhibition of human CCRF-CEM cells assessed as cell growth at 10^-7 M by sulforhodamine B assay; conditions: read-out: Activity
T47D = test: Growth inhibition of human T47D cells assessed as cell growth at 10^-8 M by sulforhodamine B assay; conditions: read-out: Activity
TK-10 [15] = test: Growth inhibition of human TK10 cells assessed as cell growth at 10^-8 M by sulforhodamine B assay; conditions: read-out: Activity
786-0 = test: Growth inhibition of human 786-0 cells assessed as cell growth at 10^-8 M by sulforhodamine B assay; conditions: read-out: Activity
OVCAR-8 = test: Growth inhibition of human OVCAR8 cells assessed as cell growth at 10^-8 M by sulforhodamine B assay; conditions: read-out: Activity
OVCAR-4 = test: Growth inhibition of human OVCAR4 cells assessed as cell growth at 10^-8 M by sulforhodamine B assay; conditions: read-out: Activity
[16] = read-out: LC50 (the source's name)
[17] = read-out: pLC50 (the source's name) (converted)

## CC(C)=CC(=O)O[C@@H]1CC(C)(C)C[C@H]2C3=CC[C@@H]4[C@@]5(C)CC[C@H](O)C(C)(C)[C@@H]5CC[C@@]4(C)[C@]3(C)CC[C@@]12C(=O)O [Reduced Lantadene B]
NCI-H23; read-out: GI50
  GI50: 7.24 µM
NCI-H23; [16]
  CC50: 84 µM
NCI-H23; read-out: TGI
  TGI: 26.9 µM
NCI-H23; read-out: pGI50 (converted)
  GI50: 7.24 µM
NCI-H23; [17]
  CC50: 83.2 µM
NCI-H23; read-out: pTGI (converted)
  TGI: 26.9 µM
HOP-92; read-out: GI50
  GI50: 1.51 µM
HOP-92; [16]
  CC50: 16.3 µM
HOP-92; read-out: TGI
  TGI: 4.23 µM
HOP-92; read-out: pGI50 (converted)
  GI50: 1.51 µM
HOP-92; [17]
  CC50: 16.2 µM
HOP-92; read-out: pTGI (converted)
  TGI: 4.27 µM
CCRF-CEM [1]; read-out: GI50
  GI50: 2.83 µM
CCRF-CEM [1]; [16]
  CC50: > 100 µM
CCRF-CEM [1]; read-out: TGI
  TGI: 34.8 µM
CCRF-CEM [1]; read-out: pGI50 (converted)
  GI50: 2.82 µM
CCRF-CEM [1]; [17]
  CC50: > 100 µM
CCRF-CEM [1]; read-out: pTGI (converted)
  TGI: 34.7 µM
IGROV-1
  growth at 0.01 µM: 104%
UACC-257
  growth at 0.01 µM: 96%
SK-MEL-28 [2]
  growth at 0.01 µM: 100%
MDA-MB-435 [3]
  growth at 0.01 µM: 100%
Malme-3M
  growth at 0.01 µM: 94%
[4]
  growth at 0.01 µM: 99%
NCI-H522 [5]
  growth at 0.01 µM: 92%
MDA-MB-231; read-out: GI50
  GI50: 4.56 µM
MDA-MB-231; [16]
  CC50: 54.7 µM
MDA-MB-231; read-out: TGI
  TGI: 19.4 µM
MDA-MB-231; read-out: pGI50 (converted)
  GI50: 4.57 µM
MDA-MB-231; [17]
  CC50: 55 µM
MDA-MB-231; read-out: pTGI (converted)
  TGI: 19.5 µM
SN12C; read-out: GI50
  GI50: 2.88 µM
SN12C; [16]
  CC50: 37 µM
SN12C; read-out: TGI
  TGI: 10.9 µM
SN12C; read-out: pGI50 (converted)
  GI50: 2.88 µM
SN12C; [17]
  CC50: 37.2 µM
SN12C; read-out: pTGI (converted)
  TGI: 11 µM
SK-MEL-2; read-out: GI50
  GI50: 9.34 µM
SK-MEL-2; [16]
  CC50: 67 µM
SK-MEL-2; read-out: TGI
  TGI: 25.4 µM
SK-MEL-2; read-out: pGI50 (converted)
  GI50: 9.33 µM
SK-MEL-2; [17]
  CC50: 67.6 µM
SK-MEL-2; read-out: pTGI (converted)
  TGI: 25.7 µM
TK-10 [6]
  growth at 100 µM: -68%
UACC-62
  growth at 100 µM: -81%
SK-MEL-28 [7]
  growth at 100 µM: -64%
HT-29 [8]
  growth at 100 µM: -36%
NCI-H460
  growth at 100 µM: -4%
BT-549
  growth at 1 µM: 93%
SF-539 [9]
  growth at 1 µM: 92%
SF-295
  growth at 1 µM: 59%
SW-620
  growth at 1 µM: 87%
HT-29 [10]
  growth at 1 µM: 89%
HCT-116
  growth at 1 µM: 72%
DU-145
  growth at 0.1 µM: 100%
CAKI-1
  growth at 0.1 µM: 98%
A498
  growth at 0.1 µM: 85%
MDA-MB-435 [11]
  growth at 0.1 µM: 97%
SF-539 [12]
  growth at 0.1 µM: 98%
HCT-15
  growth at 0.1 µM: 87%
COLO 205
  growth at 0.1 µM: 97%
NCI-H522 [13]
  growth at 0.1 µM: 102%
A549
  growth at 0.1 µM: 79%
HL-60(TB)
  growth at 0.1 µM: 105%
CCRF-CEM [14]
  growth at 0.1 µM: 102%
T47D
  growth at 0.01 µM: 93%
TK-10 [15]
  growth at 0.01 µM: 92%
786-0
  growth at 0.01 µM: 97%
OVCAR-8
  growth at 0.01 µM: 101%
OVCAR-4
  growth at 0.01 µM: 100%
